The target of assay [1] is T1, TaGDH (Thermoplasma acidophilum glucose dehydrogenase) (Thermoplasma acidophilum, UniProt P13203).
T1 construct: gene gdh; pET21b(+) in E. coli Rosetta(DE3)pLysS; partially purified by heat treatment (60 °C, 15 min)
T1 sequence (P13203 2-361): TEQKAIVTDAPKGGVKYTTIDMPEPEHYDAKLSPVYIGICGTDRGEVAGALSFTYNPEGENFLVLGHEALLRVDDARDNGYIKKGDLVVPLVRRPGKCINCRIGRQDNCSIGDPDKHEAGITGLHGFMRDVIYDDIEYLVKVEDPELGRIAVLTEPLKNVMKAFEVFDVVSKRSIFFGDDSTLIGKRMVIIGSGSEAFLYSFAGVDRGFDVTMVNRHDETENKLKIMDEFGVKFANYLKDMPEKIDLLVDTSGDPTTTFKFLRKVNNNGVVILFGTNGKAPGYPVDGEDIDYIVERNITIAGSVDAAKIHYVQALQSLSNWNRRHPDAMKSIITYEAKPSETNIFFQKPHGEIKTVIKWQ
Nature of the assay: NADPH formation at […] nm, initial rate. Type of assay: biochemical. The note with it: free enzyme; NADP+ 0.2 mM; HEPES-NaOH pH 6.5, 37 °C; partially purified.

Assay [2] addresses T2, TaIDH (T. acidophilum isocitrate dehydrogenase) (Thermoplasma acidophilum, UniProt Q9HLV8).
T2 construct: gene Ta0117; pET21b(+) in E. coli BL21(DE3)pLysS; partially purified by heat treatment (60 °C, 15 min)
T2 sequence (Q9HLV8 1-405): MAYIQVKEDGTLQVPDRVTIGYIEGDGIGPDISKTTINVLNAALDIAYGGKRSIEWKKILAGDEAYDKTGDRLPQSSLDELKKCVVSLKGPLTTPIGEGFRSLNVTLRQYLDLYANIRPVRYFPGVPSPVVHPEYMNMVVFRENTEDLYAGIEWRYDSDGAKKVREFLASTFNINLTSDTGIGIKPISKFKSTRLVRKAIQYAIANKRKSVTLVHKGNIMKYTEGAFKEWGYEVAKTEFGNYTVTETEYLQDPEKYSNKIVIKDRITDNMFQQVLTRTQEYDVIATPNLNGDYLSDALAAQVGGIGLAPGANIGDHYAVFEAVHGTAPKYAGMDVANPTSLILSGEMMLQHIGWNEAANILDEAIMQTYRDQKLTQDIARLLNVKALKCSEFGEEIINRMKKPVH
The experiment in a line: NADPH formation at […] nm, initial rate (oxidative decarboxylation). Conditions: free enzyme; NADP+ 0.2 mM, MgCl2 0.4 mM; HEPES-NaOH pH 6.5, 37 °C; partially purified. It is filed as biochemical.

Molecules are shown by their SMILES.

For `OC[C@H]1OC(O)[C@H](O)[C@@H](O)[C@@H]1O` (stereo partly drawn) [D-glucose], the “NADPH formation at 340 nm, initial rate” value in assay [1] is “micromoles of NADPH released by the oxidation of glucose per minute”. Take `O=C(O)CC(C(=O)O)C(O)C(=O)O` (racemic) [DL-isocitric acid]: in assay [2], the “NADPH formation at 340 nm, initial rate (oxidative decarboxylation)” value was “NADPH released by the decarboxylation and oxidation of DL-isocitric acid per minute”.

For the origin of these results see paper PMC10796475, “Immobilization of Thermoplasma acidophilum Glucose Dehydrogenase and Isocitrate Dehydrogenase Through Enzyme-Inorganic Hybrid Nanocrystal Formation” (Current Microbiology, 2024).
